# Measurements from patent US6410533B1, “Antibacterial compounds” (Genzyme Corporation, priority 2000, dated 2002).
# Read-outs that look alike come from different tables or passages of the source.
# How the values were obtained:
# [1] = tested on: Staphylococcus aureus bacteria (ATCC 9604 SV); test: Minimal inhibitory concentration (MIC), broth microdilution; format: cell-based; conditions: 24 h at 37° C.
# In short: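 MIC: broth microdilution per NCCLS in Mueller-Hinton broth; overnight culture adjusted to 0.05 McFarland and diluted twenty-fold into compound-containing broth. IC50: inoculum at 0.1 McFarland diluted two-fold into TB broth with compound, 3–5 h at 37° C. Turbidity at 550 nm; IC50 is the concentration giving 50% growth inhibition.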
# [2] = tested on: Staphylococcus aureus bacteria (ATCC 9604 SV); test: IC50 determination, growth inhibition by turbidity at 550 nm; format: cell-based; conditions: Staphylococcus aureus ATCC 9604 SV, turbidity at 550 nm after 3-5 h at 37° C.
# Description: Minimal inhibitory concentrations (MICs) for Staphylococcus aureus bacteria (ATCC 9604 SV) were determined by broth microdilution methodology following National Committee for Clinical Laboratory Standards. In the MIC determinations, the compounds were incorporated into Mueller-Hinton broth (Becton Dickinson Microbiology systems, Cockeyville, Md.) at a series of concentrations. After the test organism was grown overnight in TB broth, the broths were adjusted to the turbidity equivalent to 0.05 McFarland standard. The suspensions were diluted twenty-fold into the broth containing the compounds. […] In the IC50 determination, the method was modified to allow the rapid growth of the organisms. The inoculum suspensions were adjusted to 0.1 McFarland standard and then diluted two-fold into the wells containing TB broth and the compounds. After three to five hours incubation at 37° C., the turbidity was measured at 550 nm and inhibitory activity was defined as the concentration of antimicrobial agent that inhibits 50% growth of the organism in the microdilution wells.
# [3] = tested on: methicillin-resistant Staphylococcus aureus (ATCC 33591); test: In vivo mouse intraperitoneal infection, mortality and % survivors over 7 days; conditions: MRSA ATCC 33591 i.p., ICR mice; for In Vivo, single dose (% of mice rescued): single dose 1 h post inoculation; for In Vivo, double dose (% of mice rescued): 1 and 5 h post inoculation
# In short: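 Male ICR mice (20 g, 10 per group) were infected i.p. with 2-3×10^7 CFU/mouse (LD90-100) of MRSA ATCC 33591 in broth with 5% mucin. Compound in 1% cremophore EL/saline was given s.c. at 1 h, or at 1 and 5 h, post-infection. Mortality and % survivors were recorded over 7 days.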
# [4] = ATCC9604, Staphylococcus aureus ATCC 9604 SV, read-out: MIC
# [5] = Staphylococcus aureus ATCC 9604 SV
smiles,measurement,setting,value
"O=C(Nc1cc(C(F)(F)F)cc(C(F)(F)F)c1)Nc1cc(-c2cccnc2)nn1-c1ccc(Br)cc1 [Compound 117, 1-(3,5-Bis-trifluoromethyl-phenyl)-3-[2-(4-bromo-phenyl)-5-pyridin-3-yl-2H-pyrazol-3-yl]-urea]",MIC,[1]; [4],3.42 µg/mL
same,IC50,[2]; ATCC9604,238 nM
same,"In Vivo, single dose (% of mice rescued)",[3]; 2 mg/kg s.c.,25% @ 2 mg/kg
same,"In Vivo, single dose (% of mice rescued)",[3]; 20 mg/kg s.c.,0% @ 20 mg/kg
O=C(Nc1cc(Cl)cc(Cl)c1)Nc1cc(-c2ccccc2)nn1-c1ccc(C(F)(F)F)cc1 [Compound 77],MIC,[1]; [5],12.3 µg/mL
same,IC50,[2],81 nM
same,"In Vivo, single dose (% of mice rescued)",[3]; 2 mg/kg s.c.,0% @ 2 mg/kg
same,"In Vivo, single dose (% of mice rescued)",[3]; 20 mg/kg s.c.,12.5% @ 20 mg/kg
CC(C)(C)c1cc(NC(=O)Nc2cc(C(F)(F)F)cc(C(F)(F)F)c2)n(-c2ccc(Br)cc2)n1 [Compound 101],MIC,[1]; [5],<0.824 µg/mL
same,IC50,[2],143 nM
same,"In Vivo, single dose (% of mice rescued)",[3]; 2 mg/kg s.c.,0% @ 2 mg/kg
same,"In Vivo, single dose (% of mice rescued)",[3]; 20 mg/kg s.c.,0% @ 20 mg/kg
COCCN(CCOC)Cc1cc(NC(=O)Nc2cc(C(F)(F)F)cc(C(F)(F)F)c2)n(-c2ccc(Br)cc2)n1 [Compound 103],MIC,[1]; [5],16.0 µg/mL
same,IC50,[2],1560 nM
same,"In Vivo, single dose (% of mice rescued)",[3]; 2 mg/kg s.c.,25% @ 2 mg/kg
same,"In Vivo, single dose (% of mice rescued)",[3]; 20 mg/kg s.c.,25% @ 20 mg/kg
same,"In Vivo, double dose (% of mice rescued)",[3]; 2 × 2 mg/kg s.c.,0% @ 2 × 2 mg/kg
same,"In Vivo, double dose (% of mice rescued)",[3]; 2 × 20 mg/kg s.c.,33% @ 2 × 20 mg/kg
Cc1cc(NC(=O)Nc2cc(Cl)cc(Cl)c2)n(-c2ccc(Br)cc2)n1 [Compound 96],MIC,[1]; [5],>22.0 µg/mL
same,IC50,[2],967 nM
same,"In Vivo, single dose (% of mice rescued)",[3]; 2 mg/kg s.c.,0% @ 2 mg/kg
same,"In Vivo, single dose (% of mice rescued)",[3]; 20 mg/kg s.c.,25% @ 20 mg/kg
CC(C)(C)c1cc(NC(=O)Nc2cc(Cl)cc(Cl)c2)n(-c2ccc(Br)cc2)n1 [Compound 100],MIC,[1]; [5],<0.723 µg/mL
same,IC50,[2],132 nM
same,"In Vivo, single dose (% of mice rescued)",[3]; 2 mg/kg s.c.,0% @ 2 mg/kg
same,"In Vivo, single dose (% of mice rescued)",[3]; 20 mg/kg s.c.,0% @ 20 mg/kg
"COc1ccc(C=C2C(=O)N(c3cc(Cl)cc(Cl)c3)N=C2c2ccccc2)cc1 [Compound 3, 2-(3,5-Dichloro-phenyl)-4-(4-methoxy-benzylidene)-5-phenyl-2,4-dihydro-pyrazol-3-one]",MIC,[1]; [4],1.3 µg/mL
same,IC50,[2]; ATCC9604,985 nM
same,"In Vivo, double dose (% of mice rescued)",[3]; 2 × 2 mg/kg s.c.,25% @ 2 × 2 mg/kg
same,"In Vivo, double dose (% of mice rescued)",[3]; 2 × 20 mg/kg s.c.,25% @ 2 × 20 mg/kg
O=C(Nc1cc(C(F)(F)F)cc(C(F)(F)F)c1)Nc1cc(-c2ccncc2)nn1-c1ccc(C(F)(F)F)cc1 [Compound 87],MIC,[1]; [5],1.68 µg/mL
same,IC50,[2],214 nM
same,"In Vivo, single dose (% of mice rescued)",[3]; 2 mg/kg s.c.,25% @ 2 mg/kg
same,"In Vivo, single dose (% of mice rescued)",[3]; 20 mg/kg s.c.,25% @ 20 mg/kg
same,"In Vivo, double dose (% of mice rescued)",[3]; 2 × 2 mg/kg s.c.,0% @ 2 × 2 mg/kg
same,"In Vivo, double dose (% of mice rescued)",[3]; 2 × 20 mg/kg s.c.,17% @ 2 × 20 mg/kg
CC(C)(C)c1cc(NC(=O)Nc2cc(C(F)(F)F)cc(C(F)(F)F)c2)n(-c2ccc(C(F)(F)F)cc2)n1 [Compound 72],MIC,[1]; [5],0.808 µg/mL
same,IC50,[2],58 nM
same,"In Vivo, single dose (% of mice rescued)",[3]; 2 mg/kg s.c.,0% @ 2 mg/kg
same,"In Vivo, single dose (% of mice rescued)",[3]; 20 mg/kg s.c.,0% @ 20 mg/kg
CCOC(=O)c1cnn(-c2ccc(Br)cc2)c1NC(=O)Nc1cc(C(F)(F)F)cc(C(F)(F)F)c1 [Compound 94],MIC,[1]; [5],<0.848 µg/mL
same,IC50,[2],261 nM
same,"In Vivo, single dose (% of mice rescued)",[3]; 2 mg/kg s.c.,0% @ 2 mg/kg
same,"In Vivo, single dose (% of mice rescued)",[3]; 20 mg/kg s.c.,0% @ 20 mg/kg
"Cc1cc(NC(=O)Nc2cc(C(F)(F)F)cc(C(F)(F)F)c2)n(-c2ccc(Br)cc2)n1 [Compound 95, 1-(3,5-Bis-trifluoromethyl-phenyl)-3-[2-(4-bromo-phenyl)-5-methyl-2H-pyrazol-3-yl]-urea]",MIC,[1]; [4],< 0.761 µg/mL
same,IC50,[2]; ATCC9604,268 nM
same,"In Vivo, single dose (% of mice rescued)",[3]; 2 mg/kg s.c.,25% @ 2 mg/kg
same,"In Vivo, single dose (% of mice rescued)",[3]; 20 mg/kg s.c.,25% @ 20 mg/kg
"O=C1CC(c2ccccc2)=NN1c1cc(Cl)cc(Cl)c1 [Compound 1, 2-(3,5-Dichloro-phenyl)-5-phenyl-2,4-dihydro-pyrazol-3-one]",MIC,[1]; [4],0.122 µg/mL
same,IC50,[2]; ATCC9604,540 nM
same,"In Vivo, double dose (% of mice rescued)",[3]; 2 × 2 mg/kg s.c.,0% @ 2 × 2 mg/kg
same,"In Vivo, double dose (% of mice rescued)",[3]; 2 × 20 mg/kg s.c.,25% @ 2 × 20 mg/kg
O=C(Nc1cc(C(F)(F)F)cc(C(F)(F)F)c1)Nc1cc(CN(CCO)CCO)nn1-c1ccc(Br)cc1 [Compound 104],MIC,[1]; [5],15.3 µg/mL
same,IC50,[2],6800 nM
same,"In Vivo, double dose (% of mice rescued)",[3]; 2 × 2 mg/kg s.c.,17% @ 2 × 2 mg/kg
same,"In Vivo, double dose (% of mice rescued)",[3]; 2 × 20 mg/kg s.c.,17% @ 2 × 20 mg/kg
O=C(Nc1cc(C(F)(F)F)cc(C(F)(F)F)c1)Nc1cc(-c2cccnc2)nn1-c1ccc(C(F)(F)F)cc1 [Compound 86],MIC,[1]; [5],1.68 µg/mL
same,IC50,[2],205 nM
same,"In Vivo, single dose (% of mice rescued)",[3]; 2 mg/kg s.c.,0% @ 2 mg/kg
same,"In Vivo, single dose (% of mice rescued)",[3]; 20 mg/kg s.c.,0% @ 20 mg/kg
O=C(Nc1cc(Cl)cc(Cl)c1)Nc1cc(-c2cccs2)nn1-c1ccc(C(F)(F)F)cc1 [Compound 84],MIC,[1]; [5],6.22 µg/mL
same,IC50,[2],134 nM
same,"In Vivo, single dose (% of mice rescued)",[3]; 2 mg/kg s.c.,0% @ 2 mg/kg
same,"In Vivo, single dose (% of mice rescued)",[3]; 20 mg/kg s.c.,0% @ 20 mg/kg
O=C(Nc1cc(Cl)cc(Cl)c1)Nc1cc(-c2ccccc2)nn1CC(F)(F)F [Compound 120],MIC,[1]; [5],>21.5 µg/mL
same,IC50,[2],291 nM
same,"In Vivo, single dose (% of mice rescued)",[3]; 2 mg/kg s.c.,0% @ 2 mg/kg
same,"In Vivo, single dose (% of mice rescued)",[3]; 20 mg/kg s.c.,0% @ 20 mg/kg
O=C(Nc1cc(C(F)(F)F)cc(C(F)(F)F)c1)Nc1cc(-c2ccccc2)nn1CC(F)(F)F [Compound 121],MIC,[1]; [5],<1.49 µg/mL
same,IC50,[2],84 nM
same,"In Vivo, single dose (% of mice rescued)",[3]; 2 mg/kg s.c.,0% @ 2 mg/kg
same,"In Vivo, single dose (% of mice rescued)",[3]; 20 mg/kg s.c.,0% @ 20 mg/kg
"O=C(NCc1cccc(Cl)c1)Nc1nc(-c2ccc(Br)cc2)cs1 [Compound 175, 1-[4-(4-Bromo-phenyl)-thiazol-2-yl]-3-(3-chloro-benzyl)-urea]",MIC,[1]; [4],5.28 µg/mL
same,IC50,[2]; ATCC9604,1390 nM
same,"In Vivo, double dose (% of mice rescued)",[3]; 2 × 2 mg/kg s.c.,0% @ 2 × 2 mg/kg
same,"In Vivo, double dose (% of mice rescued)",[3]; 2 × 20 mg/kg s.c.,25% @ 2 × 20 mg/kg
O=C(Nc1cc(C(F)(F)F)cc(C(F)(F)F)c1)Nc1cc(-c2ccsc2)nn1-c1ccc(Br)cc1 [Compound 111],MIC,[1]; [5],<0.863 µg/mL
same,IC50,[2],126 nM
same,"In Vivo, single dose (% of mice rescued)",[3]; 2 mg/kg s.c.,0% @ 2 mg/kg
same,"In Vivo, single dose (% of mice rescued)",[3]; 20 mg/kg s.c.,0% @ 20 mg/kg
O=C(Nc1cc(Cl)cc(Cl)c1)Nc1ccnn1-c1ccc(Br)cc1 [Compound 93],MIC,[1]; [5],<0.639 µg/mL
same,IC50,[2],138 nM
same,"In Vivo, single dose (% of mice rescued)",[3]; 2 mg/kg s.c.,0% @ 2 mg/kg
same,"In Vivo, single dose (% of mice rescued)",[3]; 20 mg/kg s.c.,25% @ 20 mg/kg
O=C(Nc1cc(Cl)cc(Cl)c1)Nc1cc(-c2ccsc2)nn1-c1ccc(Br)cc1 [Compound 110],MIC,[1]; [5],25.4 µg/mL
same,IC50,[2],164 nM
same,"In Vivo, single dose (% of mice rescued)",[3]; 2 mg/kg s.c.,0% @ 2 mg/kg
same,"In Vivo, single dose (% of mice rescued)",[3]; 20 mg/kg s.c.,0% @ 20 mg/kg
O=C(Nc1cc(C(F)(F)F)cc(C(F)(F)F)c1)Nc1cc(CN2CCOCC2)nn1-c1ccc(C(F)(F)F)cc1 [Compound 89],MIC,[1]; [5],>29.1 µg/mL
same,IC50,[2],216 nM
same,"In Vivo, single dose (% of mice rescued)",[3]; 2 mg/kg s.c.,0% @ 2 mg/kg
same,"In Vivo, single dose (% of mice rescued)",[3]; 20 mg/kg s.c.,0% @ 20 mg/kg
O=C(Nc1cc(C(F)(F)F)cc(C(F)(F)F)c1)Nc1cc(-c2cccs2)nn1-c1ccc(C(F)(F)F)cc1 [Compound 83],MIC,[1]; [5],0.847 µg/mL
same,IC50,[2],71 nM
same,"In Vivo, single dose (% of mice rescued)",[3]; 2 mg/kg s.c.,0% @ 2 mg/kg
same,"In Vivo, single dose (% of mice rescued)",[3]; 20 mg/kg s.c.,25% @ 20 mg/kg
O=C(Nc1cc(Cl)cc(Cl)c1)Nc1cc(-c2ccco2)nn1-c1ccc(Br)cc1 [Compound 112],MIC,[1]; [5],6.15 µg/mL
same,IC50,[2],232 nM
same,"In Vivo, single dose (% of mice rescued)",[3]; 2 mg/kg s.c.,0% @ 2 mg/kg
same,"In Vivo, single dose (% of mice rescued)",[3]; 20 mg/kg s.c.,0% @ 20 mg/kg
